Our source for the melting point values is patent publication US7183415B2, “Quinoline compound” (Takeda Pharmaceutical Company Limited, priority 2001, dated 2007).

Some results are limits rather than exact numbers.

For the molecule `Cc1ccccc1-c1ccc(C(=O)Nc2ccc3cc(CN4CCCC4)cnc3c2C)cc1` [Example 111, 2′-methyl-N-[8-methyl-3-(1-pyrrolidinylmethyl)-7-quinolinyl][1,1′-biphenyl]-4-carboxamide], the melting point (in general, the temperature of the solid-liquid transition) was 150 to 151 °C.
Take `CN1CCc2nc3cc(NC(=O)c4ccc(-c5ccc(Cl)cc5)cc4)ccc3cc2C1` [Example 326, 4′-chloro-N-(2-methyl-1,2,3,4-tetrahydrobenzo[b][1,6]naphthyridin-7-yl)[1,1′-biphenyl]-4-carboxamide]: the melting point was > 220 °C (dec.).
With `CCN(CC)C(=O)C1CCN(Cc2cnc3cc(NC(=O)c4ccc(-c5ccc(F)cc5)cc4)c(C)cc3c2)CC1` [Example 272, N,N-diethyl-1-[(7-{[(4′-fluoro-1,1′-biphenyl-4-yl)carbonyl]amino}-6-methyl-3-quinolinyl)methyl]piperidine-4-carboxamide], the melting point was found to be 203 °C.
The figure for `Cc1c(NC(=O)c2ccc(-c3ccc(F)cc3)cc2)ccc2cc(CN3CCC(CCCC(N)=O)CC3)cnc12` [Example 206, N-(3-{[4-(4-amino-4-oxobutyl)-1-piperidinyl]methyl}-8-methyl-7-quinolinyl)-4′-fluoro[1,1′-biphenyl]-4-carboxamide] is 232 to 234 °C.
Consider `Cc1c(NC(=O)c2ccc(-c3ccccc3)cc2F)ccc2cc(CN3CCCCCC3)cnc12` (hydrate or solvate) [Example 183, N-[3-(1-azepanylmethyl)-8-methyl-7-quinolinyl]-3-fluoro[1,1′-biphenyl]-4-carboxamide], for which the melting point fell in the range of 151 to 153 °C.
Turning to `Cc1cc2cc(CN3CCCC3)cnc2cc1NC(=O)c1ccc(-c2ccc(C(F)(F)F)cc2)cc1` [Example 215, N-[6-methyl-3-(1-pyrrolidinylmethyl)-7-quinolinyl]-4′-(trifluoromethyl)[1,1′-biphenyl]-4-carboxamide], the melting point was in the range of 216 to 219 °C.
In the case of `Cc1c(NC(=O)c2ccc(-c3ccc(F)cc3)c(F)c2)ccc2cc(CN3CCCC3)cnc12` [Example 153, 2,4′-difluoro-N-[8-methyl-3-(1-pyrrolidinylmethyl)-7-quinolinyl][1,1′-biphenyl]-4-carboxamide] it was 176 to 178 °C; in that of `O=C(Nc1cc2ncc(CN3CCCC3)cc2cc1N1CCCC1)c1ccc(Br)cc1` [Example 63, 4-bromo-N-[6-(1-pyrrolidinyl)-3-(1-pyrrolidinylmethyl)-7-quinolinyl]benzamide], 171 to 173 °C.
The molecule `Cc1c(NC(=O)c2ccc(-c3ccc4c(c3)CCCCO4)cc2)ccc2cc(CN3CCCC3)cnc12` [Example 116, N-[8-methyl-3-(1-pyrrolidinylmethyl)-7-quinolinyl]-4-(2,3,4,5-tetrahydro-1-benzoxepin-7-yl)benzamide] had a melting point of 162 to 163 °C.
Take `CCC(=O)Oc1ccc(C(=O)Nc2ccc3cc(CN4CCCC4)cnc3c2C)cc1` [Example 330, 4-({[8-methyl-3-(1-pyrrolidinylmethyl)-7-quinolinyl]amino}carbonyl)phenyl propionate]: the melting point fell in the range of 146 to 147 °C.
In the case of `Cc1ccc(C2CCN(C(=O)Nc3ccc4cc(CN5CCCCCC5)cnc4c3)CC2)cc1` [Example 35, N-[3-(1-azepanylmethyl)-7-quinolinyl]-4-(4-methylphenyl)-1-piperidine carboxamide] it was 240 °C (dec.); in that of `Cc1ccc(C2CCN(C(=O)Nc3ccc4cc(CN5CCCC5)cnc4c3)CC2)cc1` [Example 15, 4-(4-methylphenyl)-N-[3-(1-pyrrolidinylmethyl)-7-quinolinyl]-1-piperidine carboxamide], 244 to 246 °C.
As for `Cc1c(NC(=O)c2ccc(-c3ccc(Cl)cc3)c(F)c2)ccc2cc(CN3CCCC3)cnc12` [Example 154, 4′-chloro-2-fluoro-N-[8-methyl-3-(1-pyrrolidinylmethyl)-7-quinolinyl][1,1′-biphenyl]-4-carboxamide], the melting point was in the range of 190 to 192 °C.
The figure for `Cc1ccc(-c2ccc(C(=O)Nc3ccc4cc(CN5CCC(C(N)=O)CC5)cnc4c3C)cc2)cc1` [Example 26, 1-[(8-methyl-7-{[(4′-methyl-1,1′-biphenyl-4-yl)carbonyl]amino}-3-quinolinyl)methyl]-4-piperidine carboxamide] is 287 °C (dec.); for `Cc1c(NC(=O)c2ccc(-c3ccc(F)cc3)cc2F)ccc2cc(CN3CCCC3)cnc12` [Example 145, 3,4′-difluoro-N-[8-methyl-3-(1-pyrrolidinylmethyl)-7-quinolinyl][1,1′-biphenyl]-4-carboxamide] it is 176 to 178 °C; for `O=C(Nc1ccc2cc(CN3CCC(CCO)CC3)cnc2c1)c1ccc(-c2ccc(F)cc2)cc1` [Example 46, 4′-fluoro-N-(3-{[4-(2-hydroxyethyl)-1-piperidinyl]methyl}-7-quinolinyl)[1,1′-biphenyl]-4-carboxamide] it is 193 to 196 °C.
Turning to `Cc1ccc(-c2ccc(C(=O)Nc3ccc4cc(CN5CCCCCC5)cnc4c3)cn2)cc1` [Example 33, N-[3-(1-azepanylmethyl)-7-quinolinyl]-6-(4-methylphenyl)nicotinamide], the melting point is 237 °C (dec.).
In the case of `CCNC(=O)CCCC1CCN(Cc2cnc3c(C)c(NC(=O)c4ccc(-c5ccc(F)cc5)cc4)ccc3c2)CC1` [Example 209, N-[3-({4-[4-(ethylamino)-4-oxobutyl]-1-piperidinyl}methyl)-8-methyl-7-quinolinyl]-4′-fluoro[1,1′-biphenyl]-4-carboxamide] it was 217 to 220 °C; in that of `Cc1cc2cc(CN3CCCC3)cnc2cc1NC(=O)c1ccc(-c2ccsc2)cc1` [Example 223, N-[6-methyl-3-(1-pyrrolidinylmethyl)-7-quinolinyl]-4-thien-3-ylbenzamide], 187 °C; in that of `CSc1ccc(-c2ccc(C(=O)Nc3ccc4cc(CN5CCCC5)cnc4c3C)cc2)cc1` (hydrate or solvate) [Example 110, N-[8-methyl-3-(1-pyrrolidinylmethyl)-7-quinolinyl]-4′-(methylsulfanyl)[1,1′-biphenyl]-4-carboxamide], 206 to 208 °C.
For `COc1ccc(-c2ccc(C(=O)Nc3cc4ncc(CN5CCCC5)cc4cc3C)cc2F)cc1` [Example 236, 2-fluoro-4′-methoxy-N-[6-methyl-3-(1-pyrrolidinylmethyl)-7-quinolinyl][1,1′-biphenyl]-4-carboxamide], the melting point was 165 to 167 °C.
Turning to `O=C(Nc1ccc2cc(CN3CCCC3)cnc2c1)N1CCC(c2ccccc2)CC1` [Example 12, 4-phenyl-N-[3-(1-pyrrolidinylmethyl)-7-quinolinyl]-1-piperidine carboxamide], the melting point is 222 to 224 °C.
In the case of `Cc1c(NC(=O)c2ccc(-c3ccc(F)cc3F)cc2F)ccc2cc(CN3CCCC3)cnc12` [Example 139, 2′,3,4′-trifluoro-N-[8-methyl-3-(1-pyrrolidinylmethyl)-7-quinolinyl][1,1′-biphenyl]-4-carboxamide] it was 172 to 173 °C; in that of `CCNC(=O)CC1CCN(Cc2cnc3cc(NC(=O)c4ccc(-c5ccc(Cl)cc5)cc4)ccc3c2)CC1` [Example 91, 4′-chloro-N-[3-({4-[2-(ethylamino)-2-oxoethyl]-1-piperidinyl}methyl)-7-quinolinyl][1,1′-biphenyl]-4-carboxamide], 250 °C.
In turn, `Cc1c(NC(=O)c2ccc(-c3cc4ccccc4s3)cc2)ccc2cc(CN3CCCC3)cnc12` (hydrate or solvate) [Example 120, 4-(1-benzothien-2-yl)-N-[8-methyl-3-(1-pyrrolidinylmethyl)-7-quinolinyl]benzamide] registered a melting point of 217 to 218 °C.
Molecule `Cc1cc2cc(CN3CCCC3)cnc2cc1NC(=O)c1ccc(-c2ccc3ccccc3c2)cc1` [Example 222, N-[6-methyl-3-(1-pyrrolidinylmethyl)-7-quinolinyl]-4-(2-naphthyl)benzamide] yielded a melting point of 194 °C.
In the case of `Cc1c(NC(=O)c2ccc(-c3ccc(Cl)cc3)cc2F)ccc2cc(CN3CCCC3)cnc12` [Example 146, 4′-chloro-3-fluoro-N-[8-methyl-3-(1-pyrrolidinylmethyl)-7-quinolinyl][1,1′-biphenyl]-4-carboxamide] it was 181 to 183 °C; in that of `O=C(Nc1ccc2cc(CN3CCCC3)cnc2c1)c1ccc(-c2ccc(F)cc2)cc1F` [Example 86], 177 °C; in that of `O=C(Nc1ccc2cc(CN3CCC(CCO)CC3)cnc2c1)c1ccc(-c2ccc(Cl)cc2)cc1` [Example 89, 4′-chloro-N-(3-{[4-(2-hydroxyethyl)-1-piperidinyl]methyl}-7-quinolinyl)-[1,1′-biphenyl]-4-carboxamide], 204 °C.
As for `Cc1c(NC(=O)c2ccc(OCc3ccc(F)cc3)cc2)ccc2cc(CN3CCCC3)cnc12` (hydrate or solvate) [Example 123, 4-[(4-fluorobenzyl)oxy]-N-[8-methyl-3-(1-pyrrolidinylmethyl)-7-quinolinyl]benzamide], the melting point was 177 to 178 °C.
The molecule `CCN(CC)C(=O)CC1CCN(Cc2cnc3c(C)c(NC(=O)c4ccc(-c5ccc(F)cc5)cc4)ccc3c2)CC1` [Example 204, N-[3-({4-[2-(diethylamino)-2-oxoethyl]-1-piperidinyl}methyl)-8-methyl-7-quinolinyl]-4′-fluoro[1,1′-biphenyl]-4-carboxamide] had a melting point of 158 to 160 °C.
The figure for `Cc1c(NC(=O)N2CCC(c3ccc(Cl)cc3)CC2)ccc2cc(CN3CCCC3)cnc12` [Example 98, 4-(4-chlorophenyl)-N-[8-methyl-3-(1-pyrrolidinylmethyl)-7-quinolinyl]-1-piperidine carboxamide] is 203 to 205 °C.
On to `Cc1c(NC(=O)c2ccc(-c3ccc(Cl)cc3Cl)cc2F)ccc2cc(CN3CCCC3)cnc12` (hydrate or solvate) [Example 137, 2′,4′-dichloro-3-fluoro-N-[8-methyl-3-(1-pyrrolidinylmethyl)-7-quinolinyl][1,1′-biphenyl]-4-carboxamide], for which the melting point lay within 162 to 163 °C.
For `CCNC(=O)CC1CCN(Cc2cnc3cc(NC(=O)c4ccc(-c5ccc(F)cc5)cc4)ccc3c2)CC1` [Example 44, N-[3-({4-[2-(ethylamino)-2-oxoethyl]-1-piperidinyl}methyl)-7-quinolinyl]-4′-fluoro[1,1′-biphenyl]-4-carboxamide], the melting point was 224 to 227 °C.
